# Columns and labels:
# [1] = system: C. albicans killing by human neutrophils; experiment: C. albicans killing by human neutrophils; format: cell-based; conditions: 10^−12M to 10^−4M; 2 hours at 37° C.; p<0.01
# Method: Venous blood (20 ml) from health volunteers was anticoagulated with heparin. Neutrophils were isolated using dextran sedimentation and Ficoll-Hypaque (Sigma Chemical Co., St. Louis, […]., USA) centrifugation. Erythrocytes were lysed via hypotonic shock. Neutrophils represented at least 97% of the cell suspension. Cell viability, estimated by trypan blue exclusion, was >98%. Neutrophils were suspended to a final concentration in HBSS.
# C. albicans (1×10^6) were opsonized with human AB serum in a shaking water bath for 30 minutes at 37° C. […] After incubation, the culture tubes were placed on ice to stop growth and extracellular organisms were washed twice with centrifugation at 1000×g at 4° C. A 2.5% sodium desoxycholoate solution was added to obtain a suspension of 10^6 cells/ml. Two 1/100 serial dilutions in HBSS were made to obtain a final suspension of 100 cells/ml. Aliquots of 1 ml were dispensed on blood agar plates and incubated for 48 hours at 37° C. Colony forming units (CFUs) were counted at the end of the incubation period. Experiments were run in triplicate and repeated using blood from 5 different donors.
# [2] = system: N9 clone of murine microglial cells; experiment: cAMP accumulation in N9 microglia; format: cell-based; conditions: for cAMP accumulation: resting cells and cells co-incubated with LPS+IFN-γ; for concentration of strongest effect on cAMP accumulation: resting microglia, 1, 10, 50 μM tested
# Method: cAMP accumulation in N9 cells was measured as previously described. […] Reactions were stopped after 3 min by aspirating supernatants, immediately adding 1 mL ethanol at −20° C. and freezing. cAMP content in the ethanol-soluble fraction was measured using an enzyme immunoassay kit (Amersham).
# C. albicans = C. albicans colony forming units (candidacidal activity); format: cell-based; conditions: for C. albicans colony forming units (CFU): FIG. 1, incubation 2 hours at 37° C.; for relative potency in reducing C. albicans viability: FIG. 2, 10^−4M melanocortin peptides
# Method: C. albicans (clinical isolate) was obtained from the collection of the Department of Microbiology, Ospedale Maggiore di Milano and maintained on Sabouraud's agar slants and periodically transferred to Sabouraud's agar plates and incubated for 48 hours at 28° C. To prepare a stationary growth phase yeast, a colony was taken from the agar plate and transferred into 30 ml Sabouraud-dextrose broth and incubated for 72 hours at 32° C. Cells were centrifuged and suspended in Hank's balanced salt solution (“HBSS”) to the desired concentration. Viability, determined by the exclusion of 0.01% methylene blue, remained >98%.
# C. albicans (1×10^6/ml in HBSS) was incubated in the presence or absence or α-MSH(1-13) (SEQ ID NO: 3) or (11-13) (SEQ ID NO: 1) at concentrations in the range of 10^−15 M to 10^−6 M for 2 hours at 37° C. Cells were then washed in cold distilled water and diluted with HBSS to a concentration of 100 organisms/ml. One-ml aliquots were dispensed on blood agar plates and incubated for 48 hours at 37° C. Organism viability was estimated from the number of colonies formed.
# In subsequent experiments using familiar procedures we compared activity of α-MSH(4-10) (SEQ ID NO: 10), (6-13) (SEQ ID NO: 2), (11-13) (SEQ ID NO: 1), ACTH(1-39) (SEQ ID NO: 9), (18-39) (SEQ ID NO: 11) and fluconazole, the latter an established antifungal agent. Melanocortin peptides and fluconazole were tested in concentrations of 10^−6 M to 10^−4 M. There were at least six replicates for each concentration of peptide. […]
# [3] = system: edema caused by intradermal injection of recombinant human IL-1β in the mouse ear; experiment: IL-1β-induced ear edema with centrally administered α-MSH and receptor antagonists; format: in vivo, BALB/c mice; conditions: α-MSH(1-13) given centrally with propranolol injected centrally
# Method: See Macaluso, A., McCoy, D., Ceriani, G., Watanabe, T., Biltz, J., Catania, A., and Lipton, J. M., Anti-inflammatory Influences of a-MSH Molecules: Central Neurogenic and Peripheral Actions, 14(4), J. of Neuroscience 2377-2382 (1994). Female BALB/c mice (Simonsen Laboratories, Gilroy, Calif.), 7-8 weeks old, were housed at 23-25° C. in groups not exceeding five animals per cage [28 cm (L)×18 cm (W)×13 cm (H)]. Before the experiments they were acclimatized for not less than 1 week before experimentation to standard lighting and temperature conditions with food and water freely available.
# Mice were anesthetized with 10% pentobarbital sodium solution (1 mg/mouse, 50 mg/ml, Nembutal sodium solution; Abbott Laboratories, North Chicago, Ill.). Baseline ear thickness measurements were taken with a spring-loaded micrometer (Swiss Precision Instruments, Los Angeles, Calif.). Ear thickness was expressed in centimeters and was measured at least twice at each time point. The average thickness of unstimulated ears was […]. Inflammation was induced by injecting 20 μl of recombinant human IL-1β (1500 U; Genzyme, Cambridge, Mass.) directly into the skin (intradermally) of one ear of each mouse using a 28 gauge needle (Hiltz et al., 1992). Measures of ear thickness were repeated 4 and 6 hr later, while the mice were under sodium pentobarbital anesthesia.
# Several agents were administered at the time of ear challenge to pharmacologically block certain receptors: atropine (Sigma Chemical Co.; 150 μg i.p.), a muscarinic receptor blocker that acts on autonomic end-organ receptors, was chosen because of links between inflammation and modulation of pain and the finding that muscarinic antagonists increase pain threshold (Hartvig et al., 1989); phentolamine (Sigma; 150 μg i.p.) an agent that competes for occupancy of α-adrenergic receptors; propranolol (Sigma; 150 μg, i.p.; 30 μg, i.c.v.), a nonspecific competitive antagonist for β-adrenergic receptors.
# Because of the size of the experiments and the requirement for several shipments of animals over time, several experiments were performed, each with complete treatment and control groups drawn from the same shipment of mice. Omnibus analysis of variance techniques (Dynastat, Washington, D.C.) were used to test overall differences among group means. Tukey's protected t test was used to compare individual means. Probability values of <0.05 were considered significant.
Substance,killing of C. albicans by human neutrophils [1],cAMP accumulation [2],concentration of strongest effect on cAMP accumulation [2] [µM],C. albicans colony forming units (CFU) (C. albicans),relative potency in reducing C. albicans viability (C. albicans),inhibition of ear edema by α-MSH ([3]; 4 hr) [%],inhibition of ear edema by α-MSH ([3]; 6 hr) [%],"cAMP accumulation in conjunction with LPS and IFN-γ ([2]; peptide 10 μM with LPS+IFN-γ, forskolin 100 μM as comparison)"
Ac-Lys-Pro-Val-NH2 [α-MSH(11-13)],enhanced the killing,increased cAMP accumulation,50,greatly reduced,most effective,–,–,–
SYSMEHFRWGKPV [α-MSH(1-13)],enhanced the killing,increased cAMP accumulation,10,greatly reduced,most effective,36,32,more effective of the two
